Data on 12 compounds can be found in ChEMBL document CHEMBL2073937, “In vitro substrate identification studies for p-glycoprotein-mediated transport: species difference and predictability of in vivo results” (J Pharmacol Exp Ther, 2001).

For data set [1], the target named is T1, ATP-dependent translocase ABCB1 (Mus musculus, UniProt P21447). Description: TP_TRANSPORTER: transepithelial transport (basal to apical) in mdr1a-expressing LLC-PK1 cell. The class given is functional, cell-based. To be noted: pig.
T1 sequence (P21447 whole entry): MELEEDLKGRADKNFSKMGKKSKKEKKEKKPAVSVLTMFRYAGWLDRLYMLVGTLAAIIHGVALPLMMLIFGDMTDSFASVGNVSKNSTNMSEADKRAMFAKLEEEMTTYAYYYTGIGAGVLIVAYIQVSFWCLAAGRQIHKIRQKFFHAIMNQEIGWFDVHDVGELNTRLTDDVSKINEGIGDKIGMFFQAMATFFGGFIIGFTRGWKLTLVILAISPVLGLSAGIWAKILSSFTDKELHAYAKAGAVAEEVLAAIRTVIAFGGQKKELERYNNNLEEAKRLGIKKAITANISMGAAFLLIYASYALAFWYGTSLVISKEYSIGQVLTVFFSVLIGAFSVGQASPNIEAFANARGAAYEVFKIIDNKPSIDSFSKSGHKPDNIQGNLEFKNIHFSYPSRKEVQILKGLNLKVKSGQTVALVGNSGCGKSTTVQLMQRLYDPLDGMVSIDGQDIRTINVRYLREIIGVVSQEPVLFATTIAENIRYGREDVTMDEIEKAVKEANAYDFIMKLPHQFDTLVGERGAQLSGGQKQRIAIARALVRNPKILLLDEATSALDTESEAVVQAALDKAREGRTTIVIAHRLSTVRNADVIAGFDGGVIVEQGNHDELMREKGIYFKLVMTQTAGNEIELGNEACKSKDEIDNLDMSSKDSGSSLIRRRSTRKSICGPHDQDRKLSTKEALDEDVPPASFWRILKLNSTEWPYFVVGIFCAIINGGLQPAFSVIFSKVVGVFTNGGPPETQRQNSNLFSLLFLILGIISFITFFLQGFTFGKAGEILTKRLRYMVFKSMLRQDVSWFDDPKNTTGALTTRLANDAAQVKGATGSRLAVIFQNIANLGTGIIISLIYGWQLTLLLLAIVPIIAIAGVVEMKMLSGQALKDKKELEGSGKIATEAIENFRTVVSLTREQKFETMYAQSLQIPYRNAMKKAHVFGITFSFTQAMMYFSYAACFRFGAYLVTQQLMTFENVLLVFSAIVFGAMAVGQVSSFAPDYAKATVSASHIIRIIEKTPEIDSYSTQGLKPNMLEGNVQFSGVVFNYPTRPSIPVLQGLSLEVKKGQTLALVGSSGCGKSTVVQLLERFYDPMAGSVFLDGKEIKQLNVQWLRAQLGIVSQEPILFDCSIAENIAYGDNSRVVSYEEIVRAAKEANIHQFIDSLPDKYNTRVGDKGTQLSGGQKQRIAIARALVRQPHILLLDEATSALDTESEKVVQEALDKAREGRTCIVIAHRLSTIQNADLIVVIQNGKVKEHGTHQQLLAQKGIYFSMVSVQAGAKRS
For data set [2], the target named is T2, ATP-dependent translocase ABCB1 (Homo sapiens, UniProt P08183). Description: TP_TRANSPORTER: transepithelial transport (basal to apical) in MDR1-expressing LLC-PK1 cells. As to conditions: pig. The class given is functional, cell-based.
T2 sequence (P08183 whole entry): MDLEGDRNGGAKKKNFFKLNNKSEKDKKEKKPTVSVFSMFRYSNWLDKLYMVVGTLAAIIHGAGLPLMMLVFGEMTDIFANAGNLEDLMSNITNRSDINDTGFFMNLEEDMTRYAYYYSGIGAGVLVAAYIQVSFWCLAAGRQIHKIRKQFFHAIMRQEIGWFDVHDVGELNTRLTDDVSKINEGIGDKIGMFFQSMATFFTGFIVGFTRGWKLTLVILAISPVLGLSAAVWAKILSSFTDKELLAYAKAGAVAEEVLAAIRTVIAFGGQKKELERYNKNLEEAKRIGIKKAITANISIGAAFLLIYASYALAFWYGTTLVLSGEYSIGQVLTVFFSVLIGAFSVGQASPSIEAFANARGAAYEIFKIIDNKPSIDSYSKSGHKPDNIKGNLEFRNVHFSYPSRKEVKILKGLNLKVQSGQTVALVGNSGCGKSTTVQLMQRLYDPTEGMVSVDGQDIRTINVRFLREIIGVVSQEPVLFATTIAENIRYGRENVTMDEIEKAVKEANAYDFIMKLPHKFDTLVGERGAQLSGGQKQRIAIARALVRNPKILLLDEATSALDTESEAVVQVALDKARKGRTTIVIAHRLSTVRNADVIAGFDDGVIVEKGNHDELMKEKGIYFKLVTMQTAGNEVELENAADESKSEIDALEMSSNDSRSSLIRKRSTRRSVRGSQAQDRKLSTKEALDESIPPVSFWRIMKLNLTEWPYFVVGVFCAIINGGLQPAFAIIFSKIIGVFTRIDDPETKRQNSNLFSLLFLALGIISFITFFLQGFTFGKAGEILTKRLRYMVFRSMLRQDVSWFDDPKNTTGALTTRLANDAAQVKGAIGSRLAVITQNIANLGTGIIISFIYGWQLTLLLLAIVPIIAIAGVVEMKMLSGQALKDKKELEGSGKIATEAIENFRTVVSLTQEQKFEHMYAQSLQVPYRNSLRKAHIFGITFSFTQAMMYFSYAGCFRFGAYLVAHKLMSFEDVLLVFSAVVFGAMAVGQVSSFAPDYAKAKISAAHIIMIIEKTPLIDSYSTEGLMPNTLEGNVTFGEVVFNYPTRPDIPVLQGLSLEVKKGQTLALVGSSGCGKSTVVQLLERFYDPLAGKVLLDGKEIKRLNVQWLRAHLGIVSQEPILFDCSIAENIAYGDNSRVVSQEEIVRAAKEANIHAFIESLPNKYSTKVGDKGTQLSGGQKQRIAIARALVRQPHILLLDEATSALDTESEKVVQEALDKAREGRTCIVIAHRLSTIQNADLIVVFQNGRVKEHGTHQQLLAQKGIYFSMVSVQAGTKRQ
Data set [3] addresses T2, ATP-dependent translocase ABCB1. The data set is described as follows: TP_TRANSPORTER: cell accumulation in KB-3-1 and KB-V1 cells. Format: functional, cell-based. As to conditions: kb-3-1;kb-v1.
Data set [4] has as its target T1, ATP-dependent translocase ABCB1. The data set is described as follows: TP_TRANSPORTER: increase in plasma concentration in mdr1a(-/-) mouse. The class given is functional, organism-based. As to conditions: in vivo.
Data set [5] shares this target. The data set is described as follows: TP_TRANSPORTER: increase in brain concentration in mdr1a(-/-) mouse. As to conditions: in vivo. The class given is functional, organism-based.
Data set [6] has the same target. Description: TP_TRANSPORTER: no change in brain concentration in mdr1a(-/-) mouse. Format: functional, organism-based. To be noted: in vivo.
Data set [7] shares this target. Description: TP_TRANSPORTER: no change in plasma concentration in mdr1a(-/-) mouse. Format: functional, organism-based. As to conditions: in vivo.

For `CN1C(=O)C(NC(=O)c2cc3ccccc3[nH]2)N=C(c2ccccc2)c2ccccc21` (racemic), the Activity result in data set [1], in data set [2] and in data set [3] was “is not a substrate [-]” each time.

Take `N#Cc1ccc(Cn2cncc2CN2CCN(c3cccc(Cl)c3)C(=O)C2)cc1` [L-778123 FREE BASE]: the Activity result in data set [1], in data set [2] and in data set [3] was “substrate [+]” each time.

Regarding `C[C@H](N)c1ccc(N2CCC(c3nc(-c4cccc(C(F)(F)F)c4)c(-c4ccncc4)n3C)CC2)cc1.[O-][Cl+3]([O-])([O-])O`, the Activity entry in data set [1], in data set [4], in data set [2], in data set [5] and in data set [3] was “substrate [+]” throughout.

As to `CC[C@H](C)C[C@H](C)CCCCCCCCC(=O)N[C@H]1C[C@@H](O)[C@@H](NCCN)NC(=O)[C@@H]2[C@@H](O)CCN2C(=O)[C@H]([C@H](O)CCN)NC(=O)[C@H]([C@H](O)[C@@H](O)c2ccc(O)cc2)NC(=O)[C@@H]2C[C@@H](O)CN2C(=O)[C@H]([C@@H](C)O)NC1=O` [CASPOFUNGIN], the Activity result in data set [1], in data set [2] and in data set [3] was “is not a substrate [-]” each time.

For the compound `C[C@@H](O)[C@H]1C(=O)N2C(C(=O)[O-])=C(S[C@@H]3CN[C@H](C(=O)Nc4cccc(C(=O)O)c4)C3)[C@H](C)[C@H]12.O.[Na+]`, the Activity result in data set [1], in data set [2] and in data set [3] was “is not a substrate [-]” in each case.

For the compound `CC(C)(C)NC(=O)[C@@H]1CN(Cc2cccnc2)CCN1C[C@@H](O)C[C@@H](Cc1ccccc1)C(=O)N[C@H]1c2ccccc2C[C@H]1O.O`, the Activity entry in data set [1], in data set [4], in data set [5] and in data set [3] was “substrate [+]” each time.

With `CC[C@]1(O)C[C@@H]2CN(CCc3c([nH]c4ccccc34)[C@@](C(=O)OC)(c3cc4c(cc3OC)N(C)[C@H]3[C@@](O)(C(=O)OC)[C@H](OC(C)=O)[C@]5(CC)C=CCN6CC[C@]43[C@@H]65)C2)C1` [VINBLASTINE], the Activity entry in data set [4], in data set [5] and in data set [3] was “substrate [+]” in each case.

For `Cc1cccc(NC(=O)NC2N=C(c3ccccc3)c3ccccc3N(C)C2=O)c1` (centres undefined), the Activity entry in data set [1], in data set [4], in data set [2], in data set [5] and in data set [3] was “substrate [+]” in each case.

As to `CC(=O)[C@H]1CC[C@H]2[C@@H]3CCC4=CC(=O)CC[C@]4(C)[C@H]3CC[C@]12C` [PROGESTERONE], the Activity entry was “is not a substrate [-]” in data set [1], “substrate [+]” in data set [2] and “is not a substrate [-]” in data set [3].

As to `CN1C(=O)CN=C(c2ccccc2)c2cc(Cl)ccc21` [DIAZEPAM], the Activity entry in data set [1], in data set [6], in data set [2], in data set [7] and in data set [3] was “is not a substrate [-]” each time.

In the case of `Cc1nc(N)ccc1CNC(=O)Cn1c(C)cnc(NCCc2ccccc2)c1=O.Cl.Cl.O`, the Activity result in data set [1], in data set [2] and in data set [3] was “substrate [+]” throughout.

For `CC(C)(C)NC(=O)[C@@H]1CN(Cc2cc3ccccc3o2)CCN1[C@@H](Cc1ccccc1)[C@@H](O)C[C@@H](Cc1ccccc1)C(=O)NC1c2ccccc2C[C@H]1O` (some centres undefined), the Activity entry in data set [1], in data set [4], in data set [5] and in data set [3] was “substrate [+]” in each case.
